In patent US20160075753A1, “MODULATION OF REGULATORY T CELL FUNCTION VIA PROTEIN KINASE C-eta” (LA JOLLA INSTITUTE FOR ALLERGY AND IMMUNOLOGY, priority 2013, published 2016):

System: interaction between CTLA-4 and PKCη
Assay: CTLA-4 immunoprecipitation and immunoblotting for PKCη in cotransfected JTAg cells
Type: cell-based, human
Details: JTAg cells cotransfected with WT Ctla4 and Xpress-tagged WT PKCη; PP2 10 μM for 30 min before anti-CD3 mAbs + B7-Fc stimulation for 5 min; FIG. 12
Description: WT Ctla4 were cotransfected with Xpress-tagged WT PKCη into JTAg cells. Cells were treated with vehicle (DMSO), PP2 (10 μM) or PP3 (10 μM) for 30 min prior to stimulation with anti-CD3 mAbs+B7-Fc recombinant protein for 5 min Cell lysates were immunoprecipitated with CTLA-4 mAb and then immunoblotted with the indicated Abs.
Simian virus 40 large T antigen-transfected human leukemic Jurkat T cells (JTAg) and MCC-specific hybridoma T cells were described previously. JTAg cells in logarithmic growth phase were transfected with plasmid DNAs by electroporation and incubated for 48 hours. Transfected cells were stimulated with OKT3 mAb and recombinant B7-Fc in the presence of cross-linking Ab for 5 min. Cell lysis in 1% digitonin lysis buffer (50 mM Tris-HCl, 50 mM NaCl, 5 mM EDTA), immunoprecipitation and Western blotting were carried out as previously described.
To map the important motif within the cytoplasmic tail of CTLA-4 that is used in the interaction with PKCη, the membrane proximal positively charged motif (K188, 191KKR193), the proline-rich motif (P205, 206, 209), and tyrosine residues (Y201 or Y218) were mutated, and the corresponding mutants examined for their ability to associate with PKCη. […] This positively charged motif is highly conserved throughout evolution from fish to primates (FIG. 10).

## CC(C)(C)n1nc(-c2ccc(Cl)cc2)c2c(N)ncnc21 [PP2]
  interaction between CTLA-4 and PKCη (co-immunoprecipitation): not affected
